row,melting point,SMILES
1,192 °C,"COc1cc2c(-c3cc4cc(Cl)cnc4[nH]3)cn(C)c2cc1OC [Example 103, 5-chloro-2-(5,6-dimethoxy-1-methyl-1H-indol-3-yl)-1H-pyrrolo[2,3-b]pyridine]"
2,240 °C,"COc1cc2c(-c3cc4c(Cl)ccnc4[nH]3)cn(CCN3CCOCC3)c2cc1OC [Example 99, 4-chloro-2-[5,6-dimethoxy-1-(2-morpholin-4-ylethyl)-1H-indol-3-yl]-1H-pyrrolo[2,3-b]pyridine]"
3,200 °C,"COc1cc2c(-c3cc4c(Cl)ccnc4[nH]3)cn(CCN3CCC(CCO)CC3)c2cc1OC [Example 100, 2-(1-{2-[3-(4-chloro-1H-pyrrolo[2,3-b]pyridin-2-yl)-5,6-dimethoxyindol-1-yl]ethyl}piperidin-4-yl)ethanol]"
4,196 °C,"COc1cc2c(-c3cc4c(C#N)ccnc4[nH]3)cn(CCN3CCN(C)CC3)c2cc1OC [Example 102, 2-{5,6-dimethoxy-1-[2-(4-methylpiperazin-1-yl)ethyl]-1H-indol-3-yl}-1H-pyrrolo[2,3-b]pyridine-4-carbonitrile]"
5,188 °C,"COc1cc2c(-c3cc4cc(F)cnc4[nH]3)cn(CCN3CCN(C)CC3)c2cc1OC [Example 106, 2-{5,6-Dimethoxy-1-[2-(4-methylpiperazin-1-yl)ethyl]-1H-indol-3-yl}-5-fluoro-1H-pyrrolo[2,3-b]pyridine]"
6,192 °C,"COc1cc2c(-c3cc4c(Cl)ccnc4[nH]3)cn(CCN3CCN(C)CC3)c2cc1OC [Example 101, 4-chloro-2-{5,6-dimethoxy-1-[2-(4-methylpiperazin-1-yl)ethyl]-1H-indol-3-yl}-1H-pyrrolo[2,3-b]pyridine]"
7,283 °C,"COc1cc2c(-c3cc4cc(F)cnc4[nH]3)cn(C)c2cc1OC [Example 104, 2-(5,6-dimethoxy-1-methyl-1H-indol-3-yl)-5-fluoro-1H-pyrrolo[2,3-b]pyridine]"
8,205 to 210 °C,"COc1cc2c(-c3cc4cc(F)cnc4[nH]3)cn(CCN3CCOCC3)c2cc1OC [Example 105, 2-[5,6-dimethoxy-1-(2-morpholin-4-ylethyl)-1H-indol-3-yl]-5-fluoro-1H-pyrrolo[2,3-b]pyridine]"
9,220 °C,"COc1cc(OC)c2c(c1)c(-c1cc3cccnc3[nH]1)cn2C [Example 175, 2-(5,7-Dimethoxy-1-methyl-1H-indol-3-yl)-1H-pyrrolo[2,3-b]pyridine]"
